{
  "source": "patent US5641780A",
  "about": "“Pyrrolo-indole derivatives” (priority 1994, dated 1997)",
  "key": {"ddY-strain male mice": {"test_system": "ddY-strain male mice", "assay": "Acute toxicity (minimum lethal dose)", "format": "in vivo", "conditions": "intravenous, mortality at 14 days after administration", "procedure": "Compound (I) was intravenously administered to ddY-strain male mice each weighing 20±1 g. MLD (minimum lethal dose) was determined by observing the mortality at 14 days after administration."}, "HeLaS3 cells": {"test_system": "HeLaS3 cells", "assay": "Growth Inhibitory Effect Against HeLaS3 cells", "format": "cell-based", "procedure": "HeLaS3 cells were suspended in MEM medium containing 10% fetal calf serum and 2 mM glutamine to a concentration of 2.67×10^4 cells/ml. The cell suspension thus prepared was put into wells of a 24-well culture plate in an amount of 0.75 ml per well. After the cells were incubated in a CO2 incubator overnight at 37° C., Compound (I) which had been appropriately diluted with a culture medium was added to each well in an amount of 0.25 ml.\nThe cells were further incubated in the CO2 incubator for 72 hours, and the culture supernatant was removed. Then, the cells were dispersed in a solution of trypsin and EDTA, and recovered. The number of the cells was counted using a cell counter. The concentration of Compound (I) at which the growth of the cells is inhibited by 50% was calculated by comparing the number of untreated cells with the number of the cells treated with Compound (I) at known concentrations, and the value was defined as IC50."}, "Sarcoma 180 tumor": {"test_system": "Sarcoma 180 tumor", "assay": "Therapeutic Effect on Sarcoma 180 Tumor", "format": "in vivo, male ddY-strain mice", "conditions": "determined seven days after implantation; for response vs control in vivo at 0.5 mg/kg: read-out: T/C (average tumor volume treated / control), dose 0.50 mg/kg, intravenous, one day after implantation", "procedure": "Five male ddY-strain mice each weighing 18-20 g were used for each group as test animals, and 5×10^5 Sarcoma 180 tumor cells were implantedat the axilla subcutaneously. One day after the implantation, 0.2 ml of a physiological saline containing Compound (I) at the concentration shown in Table 3 was intravenously administered to each mouse. T/C [T: average tumor volume (mm^3) of the group treated with the test compound, C: average tumor volume (mm^3) of the control group (to which 0.2 ml of a physiological saline was intravenously administered)] was determined seven days after the implantation."}, "[1]": {"conditions": "Homo sapiens, HeLa S3, 72 h, read-out: IC50, growth inhibition of HeLaS3 cells, 72 hours, 37° C., cell counter"}, "[2]": {"conditions": "Mus musculus, Sarcoma-180, iv, 168 h, read-out: T/C (average tumor volume treated / control), dose 4.0 mg/kg, intravenous, one day after implantation"}, "[3]": {"conditions": "read-out: IC50, growth inhibition of HeLaS3 cells, 72 hours, 37° C., cell counter"}, "[4]": {"conditions": "Homo sapiens, HeLa S3, 72 hours, 37° C., cell counter, read-out: IC50, growth inhibition of HeLaS3 cells"}, "[5]": {"conditions": "Mus musculus, Sarcoma-180, iv, 168 h, read-out: T/C (average tumor volume treated / control), dose 2.0 mg/kg, intravenous, one day after implantation"}, "[6]": {"conditions": "Mus musculus, Sarcoma-180, iv, 168 h"}, "[7]": {"conditions": "Mus musculus, Sarcoma-180, 168 h, dose 8.0 mg/kg, intravenous, one day after implantation, read-out: T/C (average tumor volume treated / control)"}},
  "note": "pIC50: −log10 of the molar value. Read-outs that look alike come from different tables or passages of the source.",
  "data": [
    {"smiles": "COC(=O)c1c(C)[nH]c2c(OC(=O)CN3CCN(C)CC3)cc3c(c12)C(CBr)CN3C(=O)/C=C/c1ccc(OC)cc1", "note": "(centres unmarked) [Compound 39]", "values": [
      {"measurement": "MLD (minimum lethal dose)", "setting": "ddY-strain male mice", "value": 4.0, "unit": "mg/kg"},
      {"measurement": "pIC50", "setting": "HeLaS3 cells; [1]", "value": 9.44}
    ]},
    {"smiles": "COC(=O)c1c(C)[nH]c2c(OC(=O)NN3CCN(C)CC3)cc3c(c12)C(CBr)CN3C(=O)/C=C/c1ccc(OC)cc1", "note": "(centres unmarked) [Compound 19]", "values": [
      {"measurement": "response vs control in vivo at 4 mg/kg", "setting": "Sarcoma 180 tumor; [2]", "value": 26, "unit": "%"},
      {"measurement": "MLD (minimum lethal dose)", "setting": "ddY-strain male mice", "value": "> 8.0", "unit": "mg/kg"},
      {"measurement": "pIC50", "setting": "HeLaS3 cells; [3]", "value": 9.28}
    ]},
    {"smiles": "COC(=O)c1c(C)[nH]c2c(OC(=O)c3ccc(CNC(=O)OC(C)(C)C)cc3)cc3c(c12)C(CBr)CN3C(=O)/C=C/c1ccc(OC)cc1", "note": "(centres unmarked) [Compound 34]", "values": [
      {"measurement": "response vs control in vivo at 2 mg/kg", "setting": "Sarcoma 180 tumor; Mus musculus, Sarcoma-180, 168 h, dose 2.0 mg/kg, intravenous, one day after implantation, read-out: T/C (average tumor volume treated / control)", "value": 28, "unit": "%"},
      {"measurement": "pIC50", "setting": "HeLaS3 cells; [4]", "value": 9.28}
    ]},
    {"smiles": "COC(=O)c1c(C)[nH]c2c(OC(=O)NN3CCN(C)CC3)cc3c(c12)C(CBr)CN3C(=O)/C=C/c1ccc(OC)cc1", "note": "(centres unmarked) [Compound 37]", "values": [
      {"measurement": "T/C (average tumor volume treated / control)", "setting": "Sarcoma 180 tumor; dose 8.0 mg/kg, intravenous, one day after implantation, 8 mg/kg", "value": 0.27},
      {"measurement": "MLD (minimum lethal dose)", "setting": "ddY-strain male mice", "value": "> 8.0", "unit": "mg/kg"},
      {"measurement": "pIC50", "setting": "HeLaS3 cells; [3]", "value": 9.04}
    ]},
    {"smiles": "CCN(CC)c1ccc(C(=O)Oc2cc3c(c4c(C(=O)OC)c(C)[nH]c24)C(CBr)CN3C(=O)/C=C/c2ccc(OC)cc2)cc1", "note": "(centres unmarked) [Compound 25]", "values": [
      {"measurement": "response vs control in vivo at 2 mg/kg", "setting": "Sarcoma 180 tumor; [5]", "value": 14, "unit": "%"},
      {"measurement": "MLD (minimum lethal dose)", "setting": "ddY-strain male mice", "value": 2.0, "unit": "mg/kg"},
      {"measurement": "pIC50", "setting": "HeLaS3 cells; [1]", "value": 7.89}
    ]},
    {"smiles": "COC(=O)c1c(C)[nH]c2c(OC(=O)Oc3ccccc3)cc3c(c12)C(CBr)CN3C(=O)c1cc2cc(OC)c(OC)c(OC)c2[nH]1", "note": "(centres unmarked) [Compound 8]", "values": [
      {"measurement": "response vs control in vivo at 0.5 mg/kg", "setting": "Sarcoma 180 tumor; [6]", "value": 9, "unit": "%"},
      {"measurement": "MLD (minimum lethal dose)", "setting": "ddY-strain male mice", "value": 0.50, "unit": "mg/kg"},
      {"measurement": "pIC50", "setting": "HeLaS3 cells; [1]", "value": 10.29}
    ]},
    {"smiles": "COC(=O)c1c(C)[nH]c2c(OC)cc3c(c12)C(CBr)CN3C(=O)c1cc2cc(OC)c(OC)c(OC)c2[nH]1", "note": "(centres unmarked) [Compound 2]", "values": [
      {"measurement": "response vs control in vivo at 8 mg/kg", "setting": "Sarcoma 180 tumor; [7]", "value": 27, "unit": "%"},
      {"measurement": "pIC50", "setting": "HeLaS3 cells; [4]", "value": 8.20}
    ]},
    {"smiles": "COC(=O)c1c(C)[nH]c2c(OC(=O)N(C)N)cc3c(c12)C(CBr)CN3C(=O)/C=C/c1ccc(OC)cc1", "note": "(centres unmarked) [Compound 30]", "values": [
      {"measurement": "response vs control in vivo at 2 mg/kg", "setting": "Sarcoma 180 tumor; [5]", "value": 22, "unit": "%"},
      {"measurement": "MLD (minimum lethal dose)", "setting": "ddY-strain male mice", "value": 2.0, "unit": "mg/kg"},
      {"measurement": "pIC50", "setting": "HeLaS3 cells; [1]", "value": 9.03}
    ]},
    {"smiles": "COC(=O)c1c(C)[nH]c2c(OCc3ccccc3)cc3c(c12)C(CBr)CN3C(=O)c1cc2cc(OC)c(OC)c(OC)c2[nH]1", "note": "(centres unmarked) [Compound 1]", "values": [
      {"measurement": "response vs control in vivo at 8 mg/kg", "setting": "Sarcoma 180 tumor; [7]", "value": 19, "unit": "%"},
      {"measurement": "pIC50", "setting": "HeLaS3 cells; [4]", "value": 8.29}
    ]},
    {"smiles": "COC(=O)c1c(C)[nH]c2c(OC(=O)c3ccc(-n4cccc4)cc3)cc3c(c12)C(CBr)CN3C(=O)/C=C/c1ccc(OC)cc1", "note": "(centres unmarked) [Compound 26]", "values": [
      {"measurement": "response vs control in vivo at 2 mg/kg", "setting": "Sarcoma 180 tumor; [5]", "value": 15, "unit": "%"},
      {"measurement": "MLD (minimum lethal dose)", "setting": "ddY-strain male mice", "value": 2.0, "unit": "mg/kg"},
      {"measurement": "pIC50", "setting": "HeLaS3 cells; [1]", "value": 8.77}
    ]},
    {"smiles": "COC(=O)c1c(C)[nH]c2c(OC(=O)c3ccc(N)c(N)c3)cc3c(c12)C(CBr)CN3C(=O)/C=C/c1ccc(OC)cc1", "note": "(centres unmarked) [Compound 22]", "values": [
      {"measurement": "pIC50", "setting": "HeLaS3 cells; [4]", "value": 8.57}
    ]},
    {"smiles": "COC(=O)c1c(C)[nH]c2c(OC(=O)c3ccc(CN4CCN(C)CC4)cc3)cc3c(c12)C(CBr)CN3C(=O)/C=C/c1ccc(OC)cc1", "note": "(centres unmarked) [Compound 28]", "values": [
      {"measurement": "response vs control in vivo at 2 mg/kg", "setting": "Sarcoma 180 tumor; [5]", "value": 21, "unit": "%"},
      {"measurement": "MLD (minimum lethal dose)", "setting": "ddY-strain male mice", "value": 2.0, "unit": "mg/kg"},
      {"measurement": "pIC50", "setting": "HeLaS3 cells; [1]", "value": 9.08}
    ]},
    {"smiles": "COC(=O)c1c(C)[nH]c2c(OC(C)=O)cc3c(c12)C(CBr)CN3C(=O)/C=C/c1ccc(OC)cc1", "note": "(centres unmarked) [Compound 14]", "values": [
      {"measurement": "response vs control in vivo at 4 mg/kg", "setting": "Sarcoma 180 tumor; [2]", "value": 22, "unit": "%"},
      {"measurement": "MLD (minimum lethal dose)", "setting": "ddY-strain male mice", "value": 2.0, "unit": "mg/kg"},
      {"measurement": "pIC50", "setting": "HeLaS3 cells; [1]", "value": 9.51}
    ]},
    {"smiles": "COC(=O)c1c(C)[nH]c2c(OC(=O)SC)cc3c(c12)C(CBr)CN3C(=O)/C=C/c1ccc(OC)cc1", "note": "(centres unmarked) [Compound 15]", "values": [
      {"measurement": "response vs control in vivo at 1 mg/kg", "setting": "Sarcoma 180 tumor; Mus musculus, Sarcoma-180, 168 h, dose 1.0 mg/kg, intravenous, one day after implantation, read-out: T/C (average tumor volume treated / control)", "value": 36, "unit": "%"},
      {"measurement": "pIC50", "setting": "HeLaS3 cells; [4]", "value": 9.37}
    ]},
    {"smiles": "COC(=O)c1c(C)[nH]c2c(OC(=O)NC(Cc3ccccc3)C(=O)O)cc3c(c12)C(CBr)CN3C(=O)c1cc2cc(OC)c(OC)c(OC)c2[nH]1", "note": "(centres unmarked) [Compound 11]", "values": [
      {"measurement": "response vs control in vivo at 4 mg/kg", "setting": "Sarcoma 180 tumor; Mus musculus, Sarcoma-180, 168 h, dose 4.0 mg/kg, intravenous, one day after implantation, read-out: T/C (average tumor volume treated / control)", "value": 7, "unit": "%"},
      {"measurement": "MLD (minimum lethal dose)", "setting": "ddY-strain male mice", "value": "> 4.0", "unit": "mg/kg"},
      {"measurement": "pIC50", "setting": "HeLaS3 cells; [4]", "value": 9.77}
    ]},
    {"smiles": "COC(=O)Oc1cc2c(c3c(C(=O)OC)c(C)[nH]c13)C(CBr)CN2C(=O)c1cc2cc(OC)c(OC)c(OC)c2[nH]1", "note": "(centres unmarked) [Compound 7]", "values": [
      {"measurement": "response vs control in vivo at 0.5 mg/kg", "setting": "Sarcoma 180 tumor; [6]", "value": 10, "unit": "%"},
      {"measurement": "MLD (minimum lethal dose)", "setting": "ddY-strain male mice", "value": 0.50, "unit": "mg/kg"},
      {"measurement": "pIC50", "setting": "HeLaS3 cells; [1]", "value": 10.09}
    ]}
  ]
}
